From patent US7943637B2, “Thienopyridine derivatives and the use thereof as HSP90 modulators” (Merck Patent GmbH, priority 2005, dated 2011)
pIC50: −log10 of the molar value.

Target: T1, Recombinant human HSP90α (Homo sapiens, UniProt P07900)
T1 construct: host or cells: E. coli
Assay: HSP90 radioligand filter binding test, competition with [3H]17AAG
Conditions: [3H]17AAG 0.08 μM; HSP90 1.5 μg/assay; 22° C., 30 min; read-out: HSP90 inhibition IC50
From the text: The binding of geldanamycin or 17-allylamino-17-demethoxygeldanamycin (17AAG) to HSP90 and competitive inhibition thereof can be utilised in order to determine the inhibitory activity of the compounds according to the invention (Carreras et al. 2003, Chiosis et al. 2002).
In the specific case, a radioligand filter binding test is used. The radioligand used here is tritium-labelled 17-allylaminogeldanamycin, [3H]17AAG. This filter binding test allows a targeted search for inhibitors which interfere with the ATP binding site.
• Recombinant human HSP90α (E. coli expressed, 95% purity); • [3H]17AAG (17-allylaminogeldanamycin, [allylamino-2,3-^3H. Specific activity: 1.11×10^12 Bq/mmol (Moravek, MT-1717); • HEPES filter buffer (50 mM HEPES, pH 7.0, 5 mM MgCl2, BSA 0.01%) Multiscreen FB (1 μm) filter plate (Millipore, MAFBNOB 50). Method
The 96-well microtitre filter plates are firstly irrigated and coated with 0.1% of polyethylenimine.
The test is carried out under the following conditions: • Reaction temperature 22° C. • Reaction time: 30 min., shaking at 800 rpm • Test volume: 50 μl • Final concentrations: • 50 mM HEPES HCl, pH 7.0, 5 mM MgCl2, 0.01% (w/v) BSA • HSP90:1.5 μg/assay • [3H]17AAG: 0.08 μM.
At the end of the reaction, the supernatant in the filter plate is removed by suction with the aid of a vacuum manifold (Multiscreen Separation System, Millipore), and the filter is washed twice.
The filter plates are then measured in a beta counter (Microbeta, Wallac) with scintillator (Microscint 20, Packard).
“% of control” is determined from the “counts per minutes” values and the IC-50 value of a compound is calculated therefrom.

SMILES	pIC50
COc1ccc(-c2c(C#N)c(N)nc3sc(C(N)=O)c(N)c23)cc1OC [Compound A1, 2-aminocarbonyl-3,6-diamino-5-cyano-4-(3,4-dimethoxyphenyl)thieno[2,3-b]pyridine]	6.00
CCOC(=O)CCCCCOc1cc(-c2c(C#N)c(N)nc3sc(C(N)=O)c(N)c23)ccc1OC [Compound A4, 2-aminocarbonyl-3,6-diamino-5-cyano-4-[3-(5-ethoxycarbonylpentyloxy)-4-methoxyphenyl]thieno[2,3-b]pyridine]	5.60
CCOC(=O)CCCCOc1cc(-c2c(C#N)c(N)nc3sc(C(N)=O)c(N)c23)ccc1OC [Compound A7, 2-aminocarbonyl-3,6-diamino-5-cyano-4-[3-(4-ethoxycarbonylbutoxy)-4-methoxyphenyl]thieno[2,3-b]pyridine]	5.82
COc1ccc(-c2c(C#N)c(N)nc3sc(C(N)=O)c(N)c23)cc1OCCCCC(=O)O [Compound A7a, 2-aminocarbonyl-3,6-diamino-5-cyano-4-[3-(4-carboxybutoxy)-4-methoxyphenyl]thieno[2,3-b]pyridine]	6.19
COc1ccc(-c2c(C#N)c(N)nc3sc(C(N)=O)c(N)c23)cc1OCCCCCC(=O)O [Compound A7b, 2-aminocarbonyl-3,6-diamino-5-cyano-4-[3-(5-carboxypentyloxy)-4-methoxyphenyl]thieno[2,3-b]pyridine]	6.05
CCOC(=O)CCCOc1cc(-c2c(C#N)c(N)nc3sc(C(N)=O)c(N)c23)ccc1OC [Compound A7c, 2-aminocarbonyl-3,6-diamino-5-cyano-4-[3-(3-ethoxycarbonylpropoxy)-4-methoxyphenyl]thieno[2,3-b]pyridine]	5.89
CCOC(=O)c1sc2nc(N)c(C#N)c(-c3ccc(OC)c(OC)c3)c2c1N [Compound A9, 2-ethoxycarbonyl-3,6-diamino-5-cyano-4-(3,4-dimethoxyphenyl)thieno[2,3-b]pyridine]	4.85
COc1ccc(-c2c(C#N)c(N)nc3sc(C(N)=O)c(N)c23)cc1OCc1ccccc1C [Compound A11]	5.85
COc1ccc(-c2c(C#N)c(N)nc3sc(C(N)=O)c(N)c23)cc1OCc1cccc(C(F)(F)F)c1 [Compound A21]	6.11
COc1ccc(-c2c(C#N)c(N)nc3sc(C(N)=O)c(N)c23)cc1OCC(N)=O [Compound A30]	5.48
COc1ccc(-c2c(C#N)c(N)nc3sc(C(N)=O)c(N)c23)cc1OCc1ccc(C(=O)O)cc1 [Compound A689]	6.13
COc1ccc(-c2c(C#N)c(N)nc3sc(C(N)=O)c(N)c23)cc1OCc1cccc(OC(F)F)c1 [Compound A693]	6.17
